The record followed here is US20040006236A1, “Diaminopropionic acid derivatives” (priority 1999, published 2004).

T1 sequence (P20701 26-1170): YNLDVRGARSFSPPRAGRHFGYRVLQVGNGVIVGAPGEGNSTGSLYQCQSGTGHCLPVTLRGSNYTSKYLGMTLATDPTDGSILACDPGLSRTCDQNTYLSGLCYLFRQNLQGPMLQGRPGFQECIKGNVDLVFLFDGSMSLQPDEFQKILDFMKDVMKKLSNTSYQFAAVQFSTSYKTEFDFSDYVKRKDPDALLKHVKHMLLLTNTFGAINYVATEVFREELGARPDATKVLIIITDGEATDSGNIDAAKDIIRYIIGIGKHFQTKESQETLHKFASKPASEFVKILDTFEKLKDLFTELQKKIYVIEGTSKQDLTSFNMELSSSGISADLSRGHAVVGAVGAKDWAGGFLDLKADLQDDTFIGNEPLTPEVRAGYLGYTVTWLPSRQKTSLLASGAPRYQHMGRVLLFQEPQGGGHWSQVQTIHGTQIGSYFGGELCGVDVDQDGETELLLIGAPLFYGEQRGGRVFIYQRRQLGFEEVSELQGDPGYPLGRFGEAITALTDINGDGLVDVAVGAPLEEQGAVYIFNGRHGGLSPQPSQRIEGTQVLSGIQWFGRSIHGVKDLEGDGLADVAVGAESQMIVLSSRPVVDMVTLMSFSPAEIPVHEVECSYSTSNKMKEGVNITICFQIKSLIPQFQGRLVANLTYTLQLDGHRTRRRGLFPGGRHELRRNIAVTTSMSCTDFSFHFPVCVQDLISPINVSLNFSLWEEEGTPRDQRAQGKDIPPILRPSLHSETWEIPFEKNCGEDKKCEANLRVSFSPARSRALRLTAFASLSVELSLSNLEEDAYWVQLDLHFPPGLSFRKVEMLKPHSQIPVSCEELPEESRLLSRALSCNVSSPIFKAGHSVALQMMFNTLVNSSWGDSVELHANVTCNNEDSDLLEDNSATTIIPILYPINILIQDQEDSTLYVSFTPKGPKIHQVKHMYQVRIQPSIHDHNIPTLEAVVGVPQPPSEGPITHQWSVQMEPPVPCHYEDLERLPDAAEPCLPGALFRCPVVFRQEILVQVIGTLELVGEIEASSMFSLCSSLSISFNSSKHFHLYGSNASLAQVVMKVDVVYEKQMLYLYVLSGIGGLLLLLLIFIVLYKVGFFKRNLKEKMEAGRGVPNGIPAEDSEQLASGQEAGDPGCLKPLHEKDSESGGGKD
T1 sequence (P05107 23-769): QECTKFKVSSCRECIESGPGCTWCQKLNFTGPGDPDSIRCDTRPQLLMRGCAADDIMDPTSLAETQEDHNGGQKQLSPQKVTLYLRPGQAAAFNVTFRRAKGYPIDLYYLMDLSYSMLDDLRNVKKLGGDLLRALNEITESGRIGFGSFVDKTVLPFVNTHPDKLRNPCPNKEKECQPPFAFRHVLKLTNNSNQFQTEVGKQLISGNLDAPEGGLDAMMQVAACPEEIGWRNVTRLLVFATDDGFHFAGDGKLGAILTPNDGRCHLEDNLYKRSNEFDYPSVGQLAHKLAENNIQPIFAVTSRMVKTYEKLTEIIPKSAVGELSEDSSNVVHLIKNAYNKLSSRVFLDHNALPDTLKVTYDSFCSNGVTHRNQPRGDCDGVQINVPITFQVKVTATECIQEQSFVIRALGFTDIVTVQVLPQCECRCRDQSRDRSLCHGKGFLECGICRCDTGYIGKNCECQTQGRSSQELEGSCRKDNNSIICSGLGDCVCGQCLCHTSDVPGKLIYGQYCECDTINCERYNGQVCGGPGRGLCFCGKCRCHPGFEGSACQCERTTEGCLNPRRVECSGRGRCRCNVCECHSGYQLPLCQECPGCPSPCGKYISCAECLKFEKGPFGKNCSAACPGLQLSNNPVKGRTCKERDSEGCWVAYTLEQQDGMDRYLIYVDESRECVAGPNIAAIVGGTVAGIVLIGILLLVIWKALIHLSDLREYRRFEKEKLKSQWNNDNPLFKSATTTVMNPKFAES

This assay has as its target T1, LFA-1 binding to immobilized ICAM-1 (Homo sapiens, UniProt P05107+P20701).
T1 construct: made in house; host or cells: transfected 293 cells (LFA-1)
Briefly: LFA-1/ICAM-1 protein-protein assay (solid-phase ELISA). The following applies: read-out: LFA-1/ICAM-1 Protein-Protein Assay IC50. A digest of the protocol: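 Human 5dICAM-Ig (ICAM-1 extracellular domain–IgG Fc) coated on plates; membrane-bound LFA-1 from transfected 293 cells (280 ng/mL) added with compound in Mn2+-containing HEPES buffer pH 7.2, 2 h at 37° C. Bound LFA-1 detected via anti-β2 antibody and HRP/TMB at 450 nm; IC50s determined.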
(ELISA stands for enzyme-linked immunosorbent assay.)
`COc1cccc(C(=O)NC[C@H](NC(=O)c2ccc(C(=O)NCc3cccc(O)c3)cc2Cl)C(=O)O)c1` [Example 76, N-[2-chloro-4-[[[(3-hydroxyphenyl)methyl]amino]-carbonyl]benzoyl]-3-(3-methoxybenzoylamino)-L-alanine]: the IC50 is 1.2 nM.

`O=C1CC[C@@H](C(=O)NC[C@H](NC(=O)c2ccc(C(=O)NCc3cccc(O)c3)cc2Cl)C(=O)O)O1` [Example 96]: the IC50 turned out to be 3.1 nM.

`O=C(NCc1cccc(O)c1)c1ccc(C(=O)N[C@@H](CNC(=O)C2CC2)C(=O)O)c(Cl)c1` [Example 97]: the IC50 was 1.9 nM.

As to `O=C(NCc1cccc(O)c1)c1ccc(C(=O)N[C@@H](CNC(=O)C2(c3ccccc3)CC2)C(=O)O)c(Cl)c1` [Example 99], the IC50 amounted to 7.5 nM.

As for `O=C(NCc1cccc(O)c1)c1ccc(C(=O)N[C@@H](CNC(=O)C2CCC2)C(=O)O)c(Cl)c1` [Example 100], the IC50 turned out to be 2.9 nM.

Regarding `O=C(NCc1cccc(O)c1)c1ccc(C(=O)N[C@@H](CNC(=O)C2CCCC2)C(=O)O)c(Cl)c1` [Example 101], the IC50 came to 1.9 nM.

With `COCCC1(C(=O)NC[C@H](NC(=O)c2ccc(C(=O)NCc3cccc(O)c3)cc2Cl)C(=O)O)CCCC1` [Example 102], the IC50 came out at 2.2 nM.

On to `O=C(NCc1cccc(O)c1)c1ccc(C(=O)N[C@@H](CNC(=O)C2(c3ccccc3)CCCC2)C(=O)O)c(Cl)c1` [Example 103], for which the IC50 came out at 1.6 nM.

`O=C(NCc1cccc(O)c1)c1ccc(C(=O)N[C@@H](CNC(=O)C2CCCCC2)C(=O)O)c(Cl)c1` [Example 104]: the IC50 came out at 3.5 nM.

Regarding `CC1(C(=O)NC[C@H](NC(=O)c2ccc(C(=O)NCc3cccc(O)c3)cc2Cl)C(=O)O)CCCCC1` [Example 105], the IC50 is 1.9 nM.

For the compound `O=C(NCc1cccc(O)c1)c1ccc(C(=O)N[C@@H](CNC(=O)[C@H](CC2CCCCC2)n2cccc2)C(=O)O)c(Cl)c1` [Example 110], the IC50 is 3.7 nM.

For `Cc1noc(C)c1CCC(=O)NC[C@H](NC(=O)c1ccc(C(=O)NCc2cccc(O)c2)cc1Cl)C(=O)O` [Example 111], the IC50 amounted to 2 nM.

With `O=C(CCN1CCCCC1)NC[C@H](NC(=O)c1ccc(C(=O)NCc2cccc(O)c2)cc1Cl)C(=O)O` [Example 112], the IC50 was determined as 1.5 nM.

For the compound `C/C=C/C(=O)NC[C@H](NC(=O)c1ccc(C(=O)NCc2cccc(O)c2)cc1Cl)C(=O)O` [Example 113], the IC50 was 1.7 nM.

As for `COc1ccc(/C=C/C(=O)NC[C@H](NC(=O)c2ccc(C(=O)NCc3cccc(O)c3)cc2Cl)C(=O)O)cc1` [Example 114], the IC50 turned out to be 1.8 nM.

For the compound `O=C(/C=C/c1cccnc1)NC[C@H](NC(=O)c1ccc(C(=O)NCc2cccc(O)c2)cc1Cl)C(=O)O` [Example 115], the IC50 is 2.2 nM.

On to `O=C(/C=C/c1cccs1)NC[C@H](NC(=O)c1ccc(C(=O)NCc2cccc(O)c2)cc1Cl)C(=O)O` [Example 116], for which the IC50 is 1.8 nM.

In the case of `CC(=O)Oc1ccccc1C(=O)NC[C@H](NC(=O)c1ccc(C(=O)NCc2cccc(O)c2)cc1Cl)C(=O)O` [Example 117], the IC50 stood at 3.6 nM.

Regarding `Nc1cccc(C(=O)NC[C@H](NC(=O)c2ccc(C(=O)NCc3cccc(O)c3)cc2Cl)C(=O)O)c1` [Example 118], the IC50 is 1.9 nM.

For `NS(=O)(=O)c1ccc(C(=O)NC[C@H](NC(=O)c2ccc(C(=O)NCc3cccc(O)c3)cc2Cl)C(=O)O)cc1` [Example 119], the IC50 is 3 nM.

`O=C(NCc1cccc(O)c1)c1ccc(C(=O)N[C@@H](CNC(=O)c2ccccc2Br)C(=O)O)c(Cl)c1` [Example 120]: the IC50 was 4.9 nM.

As to `O=C(NCc1cccc(O)c1)c1ccc(C(=O)N[C@@H](CNC(=O)c2cccc(Br)c2)C(=O)O)c(Cl)c1` [Example 121], the IC50 worked out at 1.6 nM.

For `O=C(NCc1cccc(O)c1)c1ccc(C(=O)N[C@@H](CNC(=O)c2ccccc2Cl)C(=O)O)c(Cl)c1` [Example 122], the IC50 turned out to be 2.8 nM.

Regarding `O=C(NCc1cccc(O)c1)c1ccc(C(=O)N[C@@H](CNC(=O)c2cccc(Cl)c2)C(=O)O)c(Cl)c1` [Example 123], the IC50 was found to be 0.8 nM.

On to `O=C(NCc1cccc(O)c1)c1ccc(C(=O)N[C@@H](CNC(=O)c2ccc(Cl)cc2)C(=O)O)c(Cl)c1` [Example 124], for which the IC50 was determined as 3.3 nM.

Take `N#Cc1cccc(C(=O)NC[C@H](NC(=O)c2ccc(C(=O)NCc3cccc(O)c3)cc2Cl)C(=O)O)c1` [Example 126]: the IC50 turned out to be 1.2 nM.

Regarding `CN(C)c1cccc(C(=O)NC[C@H](NC(=O)c2ccc(C(=O)NCc3cccc(O)c3)cc2Cl)C(=O)O)c1` [Example 127], the IC50 was 2.2 nM.

As to `CN(C)c1ccc(C(=O)NC[C@H](NC(=O)c2ccc(C(=O)NCc3cccc(O)c3)cc2Cl)C(=O)O)cc1` [Example 128], the IC50 was 4.2 nM.

Turning to `CCOc1ccc(C(=O)NC[C@H](NC(=O)c2ccc(C(=O)NCc3cccc(O)c3)cc2Cl)C(=O)O)cc1` [Example 130], the IC50 was found to be 5 nM.

On to `O=C(NCc1cccc(O)c1)c1ccc(C(=O)N[C@@H](CNC(=O)c2cccc(F)c2)C(=O)O)c(Cl)c1` [Example 131], for which the IC50 was found to be 0.8 nM.

Turning to `O=C(NCc1cccc(O)c1)c1ccc(C(=O)N[C@@H](CNC(=O)c2cccc(O)c2)C(=O)O)c(Cl)c1` [Example 132], the IC50 came out at 0.6 nM.

As for `O=C(NCc1cccc(O)c1)c1ccc(C(=O)N[C@@H](CNC(=O)c2cccc(I)c2)C(=O)O)c(Cl)c1` [Example 133], the IC50 turned out to be 1.5 nM.

In the case of `COc1ccccc1C(=O)NC[C@H](NC(=O)c1ccc(C(=O)NCc2cccc(O)c2)cc1Cl)C(=O)O` [Example 134], the IC50 worked out at 2.1 nM.

`COc1ccc(C(=O)NC[C@H](NC(=O)c2ccc(C(=O)NCc3cccc(O)c3)cc2Cl)C(=O)O)cc1` [Example 135]: the IC50 was found to be 6.3 nM.

`COC(=O)c1cccc(C(=O)NC[C@H](NC(=O)c2ccc(C(=O)NCc3cccc(O)c3)cc2Cl)C(=O)O)c1` [Example 136]: the IC50 stood at 2 nM.

Regarding `Cc1ccccc1C(=O)NC[C@H](NC(=O)c1ccc(C(=O)NCc2cccc(O)c2)cc1Cl)C(=O)O` [Example 137], the IC50 was found to be 1.1 nM.

Turning to `Cc1cccc(C(=O)NC[C@H](NC(=O)c2ccc(C(=O)NCc3cccc(O)c3)cc2Cl)C(=O)O)c1` [Example 138], the IC50 was found to be 0.7 nM.

With `Cc1ccc(C(=O)NC[C@H](NC(=O)c2ccc(C(=O)NCc3cccc(O)c3)cc2Cl)C(=O)O)cc1` [Example 139], the IC50 amounted to 4.8 nM.

For `O=C(NCc1cccc(O)c1)c1ccc(C(=O)N[C@@H](CNC(=O)c2ccccc2[N+](=O)[O-])C(=O)O)c(Cl)c1` [Example 140], the IC50 was 1.8 nM.

In the case of `O=C(NCc1cccc(O)c1)c1ccc(C(=O)N[C@@H](CNC(=O)c2cccc([N+](=O)[O-])c2)C(=O)O)c(Cl)c1` [Example 141], the IC50 stood at 1.9 nM.

As for `O=C(NCc1cccc(O)c1)c1ccc(C(=O)N[C@@H](CNC(=O)c2ccc([N+](=O)[O-])cc2)C(=O)O)c(Cl)c1` [Example 142], the IC50 was determined as 2 nM.

On to `CCCCCOc1ccc(C(=O)NC[C@H](NC(=O)c2ccc(C(=O)NCc3cccc(O)c3)cc2Cl)C(=O)O)cc1` [Example 143], for which the IC50 was 11 nM.

With `O=C(NCc1cccc(O)c1)c1ccc(C(=O)N[C@@H](CNC(=O)c2ccccc2Oc2ccccc2)C(=O)O)c(Cl)c1` [Example 144], the IC50 was 6.6 nM.

Consider `O=C(NCc1cccc(O)c1)c1ccc(C(=O)N[C@@H](CNC(=O)c2cc(F)c(F)cc2F)C(=O)O)c(Cl)c1` [Example 145], for which the IC50 was 1.7 nM.

With `O=C(NCc1cccc(O)c1)c1ccc(C(=O)N[C@@H](CNC(=O)c2cccc(C(F)(F)F)c2)C(=O)O)c(Cl)c1` [Example 146], the IC50 is 2.6 nM.

For `COc1cc(C(=O)NC[C@H](NC(=O)c2ccc(C(=O)NCc3cccc(O)c3)cc2Cl)C(=O)O)cc(OC)c1OC` [Example 147], the IC50 stood at 15 nM.

For the compound `O=C(NCc1cccc(O)c1)c1ccc(C(=O)N[C@@H](CNC(=O)c2ccco2)C(=O)O)c(Cl)c1` [Example 148], the IC50 stood at 1.4 nM.

For `O=C(NCc1cccc(O)c1)c1ccc(C(=O)N[C@@H](CNC(=O)c2ccc([N+](=O)[O-])o2)C(=O)O)c(Cl)c1` [Example 149], the IC50 turned out to be 2.9 nM.

As for `O=C(NCc1cccc(O)c1)c1ccc(C(=O)N[C@@H](CNC(=O)c2ccc(Br)o2)C(=O)O)c(Cl)c1` [Example 150], the IC50 is 2.5 nM.

`O=C(NCc1cccc(O)c1)c1ccc(C(=O)N[C@@H](CNC(=O)c2ccc[nH]2)C(=O)O)c(Cl)c1` [Example 151]: the IC50 amounted to 2.8 nM.

For the compound `Cc1noc(C)c1C(=O)NC[C@H](NC(=O)c1ccc(C(=O)NCc2cccc(O)c2)cc1Cl)C(=O)O` [Example 153], the IC50 turned out to be 7.7 nM.

With `O=C(NCc1cccc(O)c1)c1ccc(C(=O)N[C@@H](CNC(=O)c2sccc2Br)C(=O)O)c(Cl)c1` [Example 154], the IC50 turned out to be 0.9 nM.

In the case of `O=C(NCc1cccc(O)c1)c1ccc(C(=O)N[C@@H](CNC(=O)c2ccc(Br)s2)C(=O)O)c(Cl)c1` [Example 155], the IC50 is 0.7 nM.

In the case of `O=C(NCc1cccc(O)c1)c1ccc(C(=O)N[C@@H](CNC(=O)c2sccc2Cl)C(=O)O)c(Cl)c1` [Example 156], the IC50 came out at 1 nM.

Take `O=C(NCc1cccc(O)c1)c1ccc(C(=O)N[C@@H](CNC(=O)c2ccc(Cl)s2)C(=O)O)c(Cl)c1` [Example 157]: the IC50 worked out at 1.2 nM.

`O=C(NCc1cccc(O)c1)c1ccc(C(=O)N[C@@H](CNC(=O)c2cc(Br)c(Br)s2)C(=O)O)c(Cl)c1` [Example 158]: the IC50 worked out at 7.5 nM.

For the compound `Cc1ccsc1C(=O)NC[C@H](NC(=O)c1ccc(C(=O)NCc2cccc(O)c2)cc1Cl)C(=O)O` [Example 159], the IC50 came out at 0.9 nM.

As to `Cc1ccc(C(=O)NC[C@H](NC(=O)c2ccc(C(=O)NCc3cccc(O)c3)cc2Cl)C(=O)O)s1` [Example 160], the IC50 came to 0.9 nM.

Take `O=C(NCc1cccc(O)c1)c1ccc(C(=O)N[C@@H](CNC(=O)c2ccsc2)C(=O)O)c(Cl)c1` [Example 161]: the IC50 is 1 nM.
